Results: patent US9814754B2, “Combinations with a backbone-cyclized peptide” (POLYPHOR AG, priority 2012, dated 2017)
Square brackets hold non-standard residues; d marks the D form. dDab = NCC[C@@H](N)C(=O)O; Orn = NCCC[C@H](N)C(=O)O; Dab = NCC[C@H](N)C(=O)O

Tests used:
Type in all cases: in vivo
[1] = system: Pseudomonas aeruginosa clinical isolate PAX11045; experiment: Murine pneumonia model, compound 1 in combination with azithromycin (Example 2)
Description: The efficacy and ED50 of the compound of formula (I) (“compound 1”) in combination with azithromycin was determined against Pseudomonas aeruginosa clinical isolate PAX11045 in a pneumonia model in mice. Colony counts in lung were determined at 20 hours post treatment.
(§1) Fresh overnight colonies of PAX11045 from a 5% Horse Blood Agar plate were suspended in 0.9% sterile saline to approximately 10^8 CFU/ml and further diluted to approximately 5×10^7 CFU/ml. Female mice (DBA/2, outbred, 17-23 g, Charles River) were anesthetized with 0.1 ml of Zoletil and inoculated via the nose with a pipette with 0.05 ml of the bacteria suspension containing approximately 10^6 CFU. 4 hours after inoculation, the mice were treated orally with 45 μl neurophen (20 mg ibuprofen/ml corresponding to approximately 30 mg/kg) as pain relief.
(§2) 480 mg of azithromycin (Zitromax™, Pfizer) were dissolved in 4.8 ml 0.9% sterile saline to a concentration of 100 mg/ml and further diluted with saline to 5 mg/ml. The mice were treated subcutaneously with 0.2 ml in the neck region with a single dose at 3 hours post infection corresponding to 50 mg/kg on the basis of a mean animal weight of 20 g.
The mice were treated subcutaneously with 0.2 ml in the neck region with a single dose at 4 hours post infection with a dose calculation based on a mean animal weight of 20 g.
(§3) Colony counts were determined post inoculation at 4 hours (untreated mice) and 24 hours (treated and vehicle-only treated mice). Immediately after the mice were sacrificed, the lungs were collected and frozen at −20° C. After thawing, the organs were homogenized in 1 ml 0.9% saline. Each sample was then 10 fold diluted in saline and 20 μl spots were applied on blood agar plates. All agar plates were incubated 18-24 hours at 35° C. in ambient air.

[2] = system: Pseudomonas aeruginosa clinical isolate PA9349; experiment: Murine pneumonia model, compound 1 alone (Reference 2); conditions: for mean CFU level compared to the vehicle group: lungs
Description: Efficacy in Murine Pneumonia Model Against Pseudomonas aeruginosa PA9349 and Estimation of ED50
The efficacy and ED50 of the compound of formula (I) (“compound 1”) was determined against Pseudomonas aeruginosa clinical isolate PA9349 in a pneumonia model in mice. Colony counts in the lungs were determined at 18-20 hours post treatment.
as §1, with “PA9349” for “PAX11045”, “5×10^6” for “5×10^7”, “18-22” for “17-23”, “Zoletil (tiletamine+zolazepam)” for “Zoletil”, “5×10^5” for “10^6”
One vial containing 10 mg of active compound 1 was dissolved in 5 ml 0.9% sterile saline to a concentration of 2 mg/ml and was further 2-fold diluted with saline to 1, 0.5, 0.25, 0.125 and 0.06 mg/ml. The mice were treated subcutaneously with 0.2 ml in the neck region with a single dose at 4 hours post infection with a dose calculation based on a mean animal weight of 20 g. As positive control colistin was used in the same manner with a fixed dose of 40 mg/kg.
as §3, with “10-fold” for “10 fold”, “18-48” for “18-24”
The CFU/ml in the inoculum was determined to 7.29 log10 CFU/ml corresponding to 5.98 log10 CFU/mouse.
At 4 hours after infection the mean log10 CFU/lung was 3.47 and the CFU level increased to 4.92 at […] post inoculation in the vehicle-only group.

[3] = system: Pseudomonas aeruginosa clinical isolate PA18298; experiment: Murine pneumonia model, compound 1 in combination with amikacin (Example 4); conditions: murine lungs
Description: The efficacy and ED50 of the compound of formula (I) (“compound 1”) in combination with amikacin was determined against Pseudomonas aeruginosa clinical isolate PA18298 in a pneumonia model in mice. Colony counts in lung were determined at 20 hours post treatment.
as §1, with “PA18298” for “PAX11045”, “18-22” for “17-23”
as §2, with “175” for “480”, “amikacin (Sigma)” for “azithromycin (Zitromax™, Pfizer)”, “5” for “4.8”, “35” for “100”, “3” for “5”, “30” for “50”
One vial containing 10 mg of active compound 1 was dissolved in 2 ml 0.9% sterile saline to a concentration of 5 mg/ml and further diluted with saline […], 1, 0.55, 0.275 and 0.137 mg/ml. The mice were treated subcutaneously with 0.2 ml in the neck region with a single dose at 4 hours post infection with a dose calculation based on a mean animal weight of 20 g. Colistin was used as a control in the same manner with a fixed dose of 20 mg/kg.
as §3
The CFU/ml in the inoculum was determined to 7.4 log10 CFU/ml corresponding to 6.17 log10 CFU/mouse.
At 4 hours after inoculation the mean log 10 CFU/lung was 5.06 and the CFU level declined to 1.55 mean log 10 CFU/lung after 24 hours in the vehicle group.

[4] = in presence of 50 mg/kg azithromycin, murine lungs
[5] = compound 1 alone, s.c., murine lungs
[6] = in presence of 30 mg/kg amikacin

Q: How did the “effect on bacterial loads” value ([1]; 5.5 mg/kg alone, lung, p<0.001) turn out when “cyclo(TWI[Dab][Orn][dDab][Dab]W[Dab][Dab]AS[dP]P) [compound 1]” was run?
A: Its value is “significant effect on reducing the bacterial loads”.

Q: And the “CFU levels compared to vehicle treatment” value ([1]; combination of compound 1 (dose series) and azithromycin 50 mg/kg, lung, p<0.01-p<0.001)?
A: The value was “concentration dependent significant reduction of the CFU levels”.

Q: And the Top level ([1]; compound 1 s.c. in presence of 50 mg/kg azithromycin (s.c., 3 h post infection), murine lungs)?
A: Its Top level is −0.10 log10 CFU/ml.

Q: What about the “1 log killing dose” value [1, 4] of the same substance?
A: The value was 1.2 mg/kg.

Q: And the “2 log killing dose” value [1, 4]?
A: Its value is 2.4 mg/kg.

Q: What about the Bottom level [1, 4] of the same substance?
A: The Bottom level was −2.59 log10 CFU/ml.

Q: And the Emax [1, 4]?
A: The Emax was 2.49 log10 CFU/ml.

Q: And the Static dose [1, 4]?
A: The Static dose was 0.63 mg/kg.

Q: What about the ED50 ([1]; in presence of fixed dose of 50 mg/kg azithromycin, murine lungs) of the same substance?
A: The ED50 was 1.74 mg/kg.

Q: And the “mean CFU level compared to the vehicle group” value ([2]; 10 mg/kg treatment group)?
A: The value was “reduction of the mean CFU level”.

Q: And the “mean CFU level compared to the vehicle group” value ([2]; 20 mg/kg treatment group)?
A: Its value is “significant reduction”.

Q: And the Top level ([2]; compound 1 alone, s.c. single dose 4 h post infection, murine lungs)?
A: The Top level was 1.59 log10 CFU/ml.

Q: What about the Bottom level [2, 5] of the same substance?
A: Its Bottom level is −0.80 log10 CFU/ml.

Q: What about the Emax [2, 5] of the same substance?
A: Its Emax is −2.4 log10 CFU/ml.

Q: What about the Static dose [2, 5] of the same substance?
A: The Static dose was 9.15 mg/kg.

Q: And the ED50 ([2]; compound 1 alone, s.c., murine lungs, sigmoidal dose-response model (variable slope))?
A: Its ED50 is 7.35 mg/kg.

Q: And the Top level ([3]; compound 1 s.c. in presence of 30 mg/kg amikacin (s.c., 3 h post infection))?
A: The Top level was −3.03 log10 CFU/ml.

Q: And the Bottom level [3, 6]?
A: The Bottom level was −3.82 log10 CFU/ml.

Q: And the Emax [3, 6]?
A: The Emax was 0.79 log10 CFU/ml.

Q: What about the ED50 ([3]; in presence of fixed dose of 30 mg/kg amikacin) of the same substance?
A: Its ED50 is 9.1 mg/kg.
